# Results reported in ChEMBL document CHEMBL1148323, “Conformationally constrained peptide analogues of pTyr-Glu-Glu-Ile as inhibitors of the Src SH2 domain binding” (J Med Chem, 2004).
# Biological target: Proto-oncogene tyrosine-protein kinase Src (Homo sapiens, UniProt P12931)
# Experiment: Concentration of compound required for inhibiting the binding of the fluorescent probe to the c-Src tyrosine kinase SH2 domain by 50%
# Sequence of Proto-oncogene tyrosine-protein kinase Src (P12931 2-536 limits assumed): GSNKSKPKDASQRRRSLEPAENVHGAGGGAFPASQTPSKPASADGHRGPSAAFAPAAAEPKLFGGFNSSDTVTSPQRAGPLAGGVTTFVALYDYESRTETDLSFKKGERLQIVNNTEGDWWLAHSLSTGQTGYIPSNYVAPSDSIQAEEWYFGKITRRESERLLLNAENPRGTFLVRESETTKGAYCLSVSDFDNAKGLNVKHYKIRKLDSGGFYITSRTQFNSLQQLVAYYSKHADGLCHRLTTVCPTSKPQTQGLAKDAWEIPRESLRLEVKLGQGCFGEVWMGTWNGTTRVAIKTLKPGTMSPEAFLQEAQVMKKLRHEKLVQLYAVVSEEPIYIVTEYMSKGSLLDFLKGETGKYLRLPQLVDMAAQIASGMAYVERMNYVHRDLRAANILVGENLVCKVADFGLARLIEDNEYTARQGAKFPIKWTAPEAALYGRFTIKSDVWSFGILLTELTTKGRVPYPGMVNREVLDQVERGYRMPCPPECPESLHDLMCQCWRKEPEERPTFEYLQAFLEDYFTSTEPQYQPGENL
row,Compound,IC50
1,CC(=O)N[C@@H](Cc1ccc(OP(=O)(O)O)cc1)C(=O)N[C@@H](CCC(=O)O)C(=O)N[C@H](CC(=O)O)CC(=O)N[C@H](C(=O)O)C(C)C,25.7 µM
2,CC[C@H](C)[C@H](NC(=O)CC[C@@H]1NC(=O)[C@H](CCC(=O)O)NC(=O)[C@H](Cc2ccc(OP(=O)(O)O)cc2)NC1=O)C(=O)O,1.1 µM
3,CC[C@H](C)[C@H](NC(=O)CC[C@H](NC(=O)[C@H](CCC(=O)O)NC(=O)[C@H](Cc1ccc(OP(=O)(O)O)cc1)NC(C)=O)C(=O)O)C(=O)O,80.7 µM
4,CC[C@@H](C)[C@H](NC(=O)[C@H](CCC(=O)O)NC(=O)CC[C@H](NC(=O)[C@H](Cc1ccc(OP(=O)(O)O)cc1)NC(C)=O)C(=O)O)C(=O)O,69.5 µM
5,CC[C@H](C)[C@H](NC(=O)[C@H](CCC(=O)O)NC(=O)[C@@H]1CCC(=O)N[C@@H](Cc2ccc(OP(=O)(O)O)cc2)C(=O)N1)C(=O)O,3.3 µM
6,CC[C@H](C)[C@H](NC(=O)[C@@H]1CCC(=O)N[C@@H](Cc2ccc(OP(=O)(O)O)cc2)C(=O)N[C@@H](CCC(=O)O)C(=O)N1)C(=O)O,5.9 µM
7,CC[C@@H](C)[C@H](NC(=O)[C@H](CCC(=O)O)NC(=O)C[C@H](NC(=O)[C@H](Cc1ccc(OP(=O)(O)O)cc1)NC(C)=O)C(=O)O)C(=O)O,75.4 µM
8,CC[C@H](C)[C@H](NC(=O)C[C@@H]1NC(=O)[C@H](CCC(=O)O)NC(=O)[C@H](Cc2ccc(OP(=O)(O)O)cc2)NC1=O)C(=O)O,1.5 µM
9,CC[C@@H](C)[C@H](NC(=O)[C@H](CCC(=O)O)NC(=O)CC[C@@H]1NC(=O)[C@H](Cc2ccc(OP(=O)(O)O)cc2)NC1=O)C(=O)O,1.2 µM
10,CC[C@@H](C)[C@H](NC(=O)[C@H](CCC(=O)O)NC(=O)CC[C@H](NC(=O)[C@@H](N)Cc1ccc(OP(=O)(O)O)cc1)C(=O)O)C(=O)O,> 100 µM
11,CC[C@H](C)[C@H](NC(=O)CC[C@H](NC(=O)[C@H](CCC(=O)O)NC(=O)[C@@H](N)Cc1ccc(OP(=O)(O)O)cc1)C(=O)O)C(=O)O,> 100 µM
12,CC[C@@H](C)[C@H](NC(=O)[C@H](CCC(=O)O)NC(=O)C[C@@H]1NC(=O)[C@H](Cc2ccc(OP(=O)(O)O)cc2)NC1=O)C(=O)O,12.1 µM
13,CC[C@H](C)[C@H](NC(=O)C[C@H](NC(=O)[C@H](CCC(=O)O)NC(=O)[C@H](Cc1ccc(OP(=O)(O)O)cc1)NC(C)=O)C(=O)O)C(=O)O,90.7 µM
14,CC[C@H](C)[C@H](NC(=O)C[C@H](NC(=O)[C@H](CCC(=O)O)NC(=O)[C@@H](N)Cc1ccc(OP(=O)(O)O)cc1)C(=O)O)C(=O)O,> 100 µM
15,CC[C@@H](C)[C@H](NC(=O)[C@H](CCC(=O)O)NC(=O)C[C@H](NC(=O)[C@@H](N)Cc1ccc(OP(=O)(O)O)cc1)C(=O)O)C(=O)O,> 100 µM
16,CC(C)[C@H](NC(=O)C[C@@H](CC(=O)O)NC(=O)[C@H](CCC(=O)O)NC(=O)[C@@H](N)Cc1ccc(OP(=O)(O)O)cc1)C(=O)O,76.3 µM
17,CC(=O)N[C@@H](Cc1ccc(OP(=O)(O)O)cc1)C(=O)N[C@@H](C(=O)O)C(=O)N[C@H](CCC(=O)O)CC(=O)N[C@H](C(=O)O)C(C)C,34.6 µM
18,"CC(C)[C@H](NC(=O)C[C@@H](CCC(=O)O)NC(=O)C(NC(=O)[C@@H](N)Cc1ccc(OP(=O)(O)O)cc1)C(=O)O)C(=O)O (single isomer, unassigned)",83.2 µM
